Reference: ChEMBL document CHEMBL3046418, “Synthesis and Herbicidal Activity of Sulfonylurea Compounds with Imidazo [1, 2-a] pyridine Moiety” (2001)

Experiments:
Assay type in all cases: functional
[1] = tested on: Stellaria media; assay: Herbicidal activity against Stellaria media at 125 g/ha after 3 weeks by post-emergence greenhouse test
[2] = tested on: Mutarda arvensis; assay: Herbicidal activity against Sinapis arvensis at 125 g/ha after 3 weeks by post-emergence greenhouse test
[3] = tested on: Matricaria chamomilla; assay: Herbicidal activity against Matricaria chamomilla at 125 g/ha after 3 weeks by post-emergence greenhouse test
[4] = tested on: Bromus tectorum; assay: Herbicidal activity against Bromus tectorum at 125 g/ha after 3 weeks by post-emergence greenhouse test
[5] = tested on: Alopecurus myosuroides; assay: Herbicidal activity against Alopecurus myosuroides at 125 g/ha after 3 weeks by post-emergence greenhouse test
[6] = tested on: Avena fatua; assay: Herbicidal activity against Avena fatua at 125 g/ha after 3 weeks by post-emergence greenhouse test
[7] = tested on: Triticum aestivum; assay: Phytotoxic activity against Triticum aestivum (wheat) at 125 g/ha after 3 weeks by post-emergence greenhouse test
[8] = tested on: Stellaria media; assay: Herbicidal activity against Stellaria media at 250 g/ha after 3 weeks by post-emergence greenhouse test
[9] = tested on: Mutarda arvensis; assay: Herbicidal activity against Sinapis arvensis at 250 g/ha after 3 weeks by post-emergence greenhouse test
[10] = tested on: Matricaria chamomilla; assay: Herbicidal activity against Matricaria chamomilla at 250 g/ha after 3 weeks by post-emergence greenhouse test
[11] = tested on: Bromus tectorum; assay: Herbicidal activity against Bromus tectorum at 250 g/ha after 3 weeks by post-emergence greenhouse test
[12] = tested on: Alopecurus myosuroides; assay: Herbicidal activity against Alopecurus myosuroides at 250 g/ha after 3 weeks by post-emergence greenhouse test
[13] = tested on: Avena fatua; assay: Herbicidal activity against Avena fatua at 250 g/ha after 3 weeks by post-emergence greenhouse test
[14] = tested on: Triticum aestivum; assay: Phytotoxic activity against Triticum aestivum (wheat) at 250 g/ha after 3 weeks by post-emergence greenhouse test
[15] = tested on: Stellaria media; assay: Herbicidal activity against Stellaria media at 500 g/ha after 3 weeks by post-emergence greenhouse test
[16] = tested on: Mutarda arvensis; assay: Herbicidal activity against Sinapis arvensis at 500 g/ha after 3 weeks by post-emergence greenhouse test
[17] = tested on: Bromus tectorum; assay: Herbicidal activity against Bromus tectorum at 500 g/ha after 3 weeks by post-emergence greenhouse test
[18] = tested on: Matricaria chamomilla; assay: Herbicidal activity against Matricaria chamomilla at 500 g/ha after 3 weeks by post-emergence greenhouse test
[19] = tested on: Alopecurus myosuroides; assay: Herbicidal activity against Alopecurus myosuroides at 500 g/ha after 3 weeks by post-emergence greenhouse test
[20] = tested on: Avena fatua; assay: Herbicidal activity against Avena fatua at 500 g/ha after 3 weeks by post-emergence greenhouse test
[21] = tested on: Triticum aestivum; assay: Phytotoxic activity against Triticum aestivum (wheat) at 500 g/ha after 3 weeks by post-emergence greenhouse test
[22] = tested on: Triticum aestivum; assay: Phytotoxic activity against Triticum aestivum (wheat) at 100 g/ha after 3 weeks by post-emergence greenhouse test
[23] = tested on: Chenopodium album; assay: Herbicidal activity against Chenopodium album at 400 g/ha after 3 weeks by post-emergence greenhouse test
[24] = tested on: Stellaria media; assay: Herbicidal activity against Stellaria media at 400 g/ha after 3 weeks by post-emergence greenhouse test
[25] = tested on: Mutarda arvensis; assay: Herbicidal activity against Sinapis arvensis at 400 g/ha after 3 weeks by post-emergence greenhouse test
[26] = tested on: Matricaria chamomilla; assay: Herbicidal activity against Matricaria chamomilla at 400 g/ha after 3 weeks by post-emergence greenhouse test
[27] = tested on: Bromus tectorum; assay: Herbicidal activity against Bromus tectorum at 400 g/ha after 3 weeks by post-emergence greenhouse test
[28] = tested on: Alopecurus myosuroides; assay: Herbicidal activity against Alopecurus myosuroides at 400 g/ha after 3 weeks by post-emergence greenhouse test
[29] = tested on: Chenopodium album; assay: Herbicidal activity against Chenopodium album at 25 g/ha after 3 weeks by post-emergence greenhouse test
[30] = tested on: Stellaria media; assay: Herbicidal activity against Stellaria media at 25 g/ha after 3 weeks by post-emergence greenhouse test
[31] = tested on: Mutarda arvensis; assay: Herbicidal activity against Sinapis arvensis at 25 g/ha after 3 weeks by post-emergence greenhouse test
[32] = tested on: Matricaria chamomilla; assay: Herbicidal activity against Matricaria chamomilla at 25 g/ha after 3 weeks by post-emergence greenhouse test
[33] = tested on: Bromus tectorum; assay: Herbicidal activity against Bromus tectorum at 25 g/ha after 3 weeks by post-emergence greenhouse test
[34] = tested on: Alopecurus myosuroides; assay: Herbicidal activity against Alopecurus myosuroides at 25 g/ha after 3 weeks by post-emergence greenhouse test
[35] = tested on: Triticum aestivum; assay: Phytotoxic activity against Triticum aestivum (wheat) at 25 g/ha after 3 weeks by post-emergence greenhouse test
[36] = tested on: Avena fatua; assay: Herbicidal activity against Avena fatua at 25 g/ha after 3 weeks by post-emergence greenhouse test
[37] = tested on: Chenopodium album; assay: Herbicidal activity against Chenopodium album at 100 g/ha after 3 weeks by post-emergence greenhouse test
[38] = tested on: Stellaria media; assay: Herbicidal activity against Stellaria media at 100 g/ha after 3 weeks by post-emergence greenhouse test
[39] = tested on: Mutarda arvensis; assay: Herbicidal activity against Sinapis arvensis at 100 g/ha after 3 weeks by post-emergence greenhouse test
[40] = tested on: Matricaria chamomilla; assay: Herbicidal activity against Matricaria chamomilla at 100 g/ha after 3 weeks by post-emergence greenhouse test
[41] = tested on: Bromus tectorum; assay: Herbicidal activity against Bromus tectorum at 100 g/ha after 3 weeks by post-emergence greenhouse test
[42] = tested on: Alopecurus myosuroides; assay: Herbicidal activity against Alopecurus myosuroides at 100 g/ha after 3 weeks by post-emergence greenhouse test
[43] = tested on: Avena fatua; assay: Herbicidal activity against Avena fatua at 100 g/ha after 3 weeks by post-emergence greenhouse test
[44] = tested on: Avena fatua; assay: Herbicidal activity against Avena fatua at 400 g/ha after 3 weeks by post-emergence greenhouse test
[45] = tested on: Triticum aestivum; assay: Phytotoxic activity against Triticum aestivum (wheat) at 400 g/ha after 3 weeks by post-emergence greenhouse test
[46] = tested on: Chenopodium album; assay: Herbicidal activity against Chenopodium album after 3 weeks by post-emergence greenhouse test; parameters: concentration or dose not given beside the values
[47] = tested on: Stellaria media; assay: Herbicidal activity against Stellaria media after 3 weeks by post-emergence greenhouse test; parameters: concentration or dose not given beside the values
[48] = tested on: Mutarda arvensis; assay: Herbicidal activity against Sinapis arvensis after 3 weeks by post-emergence greenhouse test; parameters: concentration or dose not given beside the values
[49] = tested on: Matricaria chamomilla; assay: Herbicidal activity against Matricaria chamomilla after 3 weeks by post-emergence greenhouse test; parameters: concentration or dose not given beside the values
[50] = tested on: Bromus tectorum; assay: Herbicidal activity against Bromus tectorum after 3 weeks by post-emergence greenhouse test; parameters: concentration or dose not given beside the values
[51] = tested on: Avena fatua; assay: Herbicidal activity against Avena fatua after 3 weeks by post-emergence greenhouse test; parameters: concentration or dose not given beside the values
[52] = tested on: Alopecurus myosuroides; assay: Herbicidal activity against Alopecurus myosuroides after 3 weeks by post-emergence greenhouse test; parameters: concentration or dose not given beside the values
[53] = tested on: Triticum aestivum; assay: Phytotoxic activity against Triticum aestivum (wheat) after 3 weeks by post-emergence greenhouse test; parameters: concentration or dose not given beside the values
[54] = tested on: Chenopodium album; assay: Herbicidal activity against Chenopodium album after 4 weeks by pre-emergence greenhouse test; parameters: concentration or dose not given beside the values
[55] = tested on: Stellaria media; assay: Herbicidal activity against Stellaria media after 4 weeks by pre-emergence greenhouse test; parameters: concentration or dose not given beside the values
[56] = tested on: Matricaria chamomilla; assay: Herbicidal activity against Matricaria chamomilla after 4 weeks by pre-emergence greenhouse test; parameters: concentration or dose not given beside the values
[57] = tested on: Mutarda arvensis; assay: Herbicidal activity against Sinapis arvensis after 4 weeks by pre-emergence greenhouse test; parameters: concentration or dose not given beside the values
[58] = tested on: Bromus tectorum; assay: Herbicidal activity against Bromus tectorum after 4 weeks by pre-emergence greenhouse test; parameters: concentration or dose not given beside the values
[59] = tested on: Alopecurus myosuroides; assay: Herbicidal activity against Alopecurus myosuroides after 4 weeks by pre-emergence greenhouse test; parameters: concentration or dose not given beside the values
[60] = tested on: Avena fatua; assay: Herbicidal activity against Avena fatua after 4 weeks by pre-emergence greenhouse test; parameters: concentration or dose not given beside the values
[61] = tested on: Triticum aestivum; assay: Phytotoxic activity against Triticum aestivum (wheat) after 4 weeks by pre-emergence greenhouse test

## CSc1nnc(C(C)(C)C)c(=O)n1N [METRIBUZIN]
[1]
  Activity: 88%
[2]
  Activity: 100%
[3]
  Activity: 51%
[4]
  Activity: 1%
[5]
  Activity: 51%
[6]
  Activity: 0%
[7]
  Phytotoxicity: 0%
[8]
  Activity: 100%
[9]
  Activity: 100%
[10]
  Activity: 100%
[11]
  Activity: 1%
[12]
  Activity: 51%
[13]
  Activity: 1%
[14]
  Phytotoxicity: 1%
[15]
  Activity: 100%
[16]
  Activity: 100%
[17]
  Activity: 88%
[18]
  Activity: 100%
[19]
  Activity: 100%
[20]
  Activity: 76%
[21]
  Phytotoxicity: 1%

## CCS(=O)(=O)c1nc2ccccn2c1S(=O)(=O)NC(=O)Nc1nc(OC)cc(OC)n1 [SULFOSULFURON]
[22]
  Phytotoxicity: 0%
[23]
  Activity: 51%
[24]
  Activity: 88%
[25]
  Activity: 88%
[26]
  Activity: 88%
[27]
  Activity: 88%
[28]
  Activity: 88%
[29]
  Activity: 1%
[30]
  Activity: 88%
[31]
  Activity: 88%
[32]
  Activity: 88%
[33]
  Activity: 88%
[34]
  Activity: 88%
[35]
  Phytotoxicity: 0%
[36]
  Activity: 88%
[37]
  Activity: 1%
[38]
  Activity: 88%
[39]
  Activity: 88%
[40]
  Activity: 88%
[41]
  Activity: 88%
[42]
  Activity: 88%
[43]
  Activity: 88%
[44]
  Activity: 0%
[45]
  Phytotoxicity: 0%
[46]
  Activity: 51%
[47]
  Activity: 88%
[48]
  Activity: 88%
[49]
  Activity: 88%
[50]
  Activity: 88%
[51]
  Activity: 88%
[52]
  Activity: 88%
[53]
  Activity: 0%
[54]
  Activity: 88%
[55]
  Activity: 88%
[56]
  Activity: 88%
[57]
  Activity: 88%
[58]
  Activity: 88%
[59]
  Activity: 88%
[60]
  Activity: 51%
[61]
  Phytotoxicity: 0%

## CCSc1nc2ccccn2c1S(=O)(=O)NC(=O)Nc1nc(OC)cc(OC)n1
[46]
  Activity: 1%
[47]
  Activity: 1%
[48]
  Activity: 76%
[49]
  Activity: 51%
[50]
  Activity: 1%
[51]
  Activity: 1%
[52]
  Activity: 51%
[53]
  Activity: 0%
[54]
  Activity: 1%
[55]
  Activity: 0%
[56]
  Activity: 88%
[57]
  Activity: 51%
[58]
  Activity: 0%
[59]
  Activity: 51%
[60]
  Activity: 0%
[61]
  Phytotoxicity: 0%

## COc1cc(OC)nc(NC(=O)NS(=O)(=O)c2c(S(C)(=O)=O)nc3ccccn23)n1
[46]
  Activity: 1%
[47]
  Activity: 76%
[48]
  Activity: 88%
[49]
  Activity: 88%
[50]
  Activity: 76%
[51]
  Activity: 1%
[52]
  Activity: 76%
[53]
  Activity: 1%
[54]
  Activity: 1%
[55]
  Activity: 51%
[56]
  Activity: 88%
[57]
  Activity: 100%
[58]
  Activity: 76%
[59]
  Activity: 76%
[60]
  Activity: 1%
[61]
  Phytotoxicity: 0%

## COc1cc(OC)nc(NC(=O)NS(=O)(=O)c2c([S+]([O-])C(C)C)nc3ccccn23)n1 (stereo not given)
[46]
  Activity: 1%
[47]
  Activity: 1%
[48]
  Activity: 1%
[49]
  Activity: 1%
[50]
  Activity: 1%
[51]
  Activity: 0%
[52]
  Activity: 1%
[53]
  Activity: 0%
[54]
  Activity: 0%
[55]
  Activity: 0%
[56]
  Activity: 1%
[57]
  Activity: 1%
[58]
  Activity: 0%
[59]
  Activity: 0%
[60]
  Activity: 0%
[61]
  Phytotoxicity: 0%

## CCS(=O)(=O)c1nc2ccccn2c1S(=O)(=O)NC(=O)Nc1nc(C)cc(C)n1
[46]
  Activity: 51%
[47]
  Activity: 1%
[48]
  Activity: 76%
[49]
  Activity: 1%
[50]
  Activity: 51%
[51]
  Activity: 51%
[52]
  Activity: 51%
[53]
  Activity: 1%
[54]
  Activity: 1%
[55]
  Activity: 0%
[56]
  Activity: 1%
[57]
  Activity: 51%
[58]
  Activity: 1%
[59]
  Activity: 0%
[60]
  Activity: 0%
[61]
  Phytotoxicity: 0%
